In PMC11266098, “Prenylated flavonoids from Sophora flavescens inhibit mushroom tyrosinase activity and modulate melanogenesis in murine melanoma cells and zebrafish” (Frontiers in Pharmacology, 2024):
Entries after “also recorded” stand apart in the source; their conditions may differ.

Legend:
tyrosinase = molecular target: tyrosinase; set-up: method as in Kim et al., 2003; conditions: ref Kim et al., 2003; read-out: IC50 (inhibition on tyrosinase activity); cited from earlier work
[1] = Cell viability assay (MTT); type: cell-based, murine; conditions: mouse, B16F10 cells
Description: B16F10 cells were seeded into 96-well plates at the density of 5 × 10^4 cells/mL, and incubated at 37°C for 24 h. Then, the cells were treated with different concentrations of test samples for 48 h. After incubation, 20 μL MTT (5 mg/mL) was added to each well, and incubated for another 4 h at 37°C. The reaction was stopped by adding 150 μL DMSO per well. The optical density at 490 nm was measured using a microplate reader. Cell viability was calculated as the percentage of viable cells relative to the control group.

zebrafish embryos = test: Determination of the maximum tolerated concentration (MTC) in zebrafish embryos; type: in vivo; conditions: 24 h
Description: Zebrafish embryos that were developing normally at 24 h were chosen at random, five zebrafish embryos per well were seeded in 48 well plates, and each group was set up with three duplicates. The embryo culture medium in the 48-well plate was removed except the blank group, and 1 mL of culture medium containing different concentrations of test samples was added to treatment groups for 24 h. The vehicle control group was added to the embryo culture medium containing 0.1% of DMSO.

DCT = test: Western blotting of DCT in B16F10 cells; type: cell-based, murine; conditions: 48 h
Description: (§1) Equal amounts of proteins from the preceding step were loaded and separated by using the 10% SDS-PAGE gels before being electro-transferred onto polyvinylidene fluoride membranes. The membrane was then blocked with 5% skim milk in TBST (Tris-buffered saline containing 0.1% Tween 20) at room temperature for 2 h. The blots were incubated overnight with primary antibodies against TYR, TRP-1, MITF, DCT, and β-actin at 4°C. After washing thrice with TBST (5 min), the membrane was incubated with the secondary antibody for 1 h at room temperature. The protein bands were detected using the ECL detection kit and imaged using a chemiluminescence gel imaging system, and the band intensities were analyzed by the Image J software.

zebrafish larvae [2] = test: Zebrafish depigmentation model (without PTU pretreatment); type: in vivo; conditions: 48 h, no PTU pretreatment
Description: (§2) To assess the effects of these compounds on melanogenesis in vivo, the total melanin content of whole zebrafish extracts was measured according to a previously described method with minor modification ([Karunarathne et al., 2019]; [Ding et al., 2021]). Briefly, zebrafish larvae of 24 h post-fertilized (hpf) were seeded in 24-well plates with ten embryos per well, each group was set up with four replicates and pretreated with 200 μM PTU for 24 h. Then, the culture medium was replaced with different concentrations of test samples and treated for another 48 h. 8-MOP (50 μM) was used as a positive control, blank controls were not treated and were cultured normally. In addition, to further verify the whitening effect of the compounds, ten zebrafish larvae (24 hpf) per well were seeded in a 24-well plate and cultured for another 24 h using fresh culture media, and each group was set up with four duplicates. Then, the culture medium was replaced with different concentrations of test samples, and the zebrafish larvae were incubated for another 48 h. 8-MOP (50 μM) and arbutin (100 mM) were used as positive controls. Spontaneous melanin content was measured from zebrafish larvae at 96 hpf. The fish embryos were fixed upright with sodium carboxymethylcellulose fixative. Five fish embryos from each experiment were randomly selected for photography under a stereomicroscope. The densitometric analysis was performed using Image J software.

[3] = molecular target: T1, Intracellular tyrosinase in B16F10 cells (Mus musculus, UniProt P11344); test: Measurement of tyrosinase activity in B16F10 cells (L-DOPA oxidation); type: cell-based, murine; conditions: 48 h
T1 construct: endogenous in cells; host or cells: B16F10 murine melanoma cells
T1 sequence (P11344 19-533): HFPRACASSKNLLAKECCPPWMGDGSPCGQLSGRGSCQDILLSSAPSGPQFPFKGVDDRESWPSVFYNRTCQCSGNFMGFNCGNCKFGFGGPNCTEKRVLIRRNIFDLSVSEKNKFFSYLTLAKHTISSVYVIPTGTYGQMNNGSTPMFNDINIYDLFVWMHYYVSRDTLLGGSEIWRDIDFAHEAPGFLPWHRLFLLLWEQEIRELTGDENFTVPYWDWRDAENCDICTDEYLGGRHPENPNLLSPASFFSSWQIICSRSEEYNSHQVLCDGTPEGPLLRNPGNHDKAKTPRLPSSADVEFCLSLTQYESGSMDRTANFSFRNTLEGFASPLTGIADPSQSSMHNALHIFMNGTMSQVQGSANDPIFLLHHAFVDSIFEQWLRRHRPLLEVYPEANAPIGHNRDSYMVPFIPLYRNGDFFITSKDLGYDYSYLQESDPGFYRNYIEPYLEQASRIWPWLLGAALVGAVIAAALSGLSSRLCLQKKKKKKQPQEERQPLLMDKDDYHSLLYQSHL
Description: Intracellular tyrosinase activity was determined by measuring the rate of oxidation of L-DOPA to dopachrome according to a previously described method with a slight modification ([Maack and Pegard, 2016]). The tyrosinase inhibitor glabridin ([Zhang et al., 2023]) and tyrosinase activator 8-MOP ([Yin et al., 2018]) were both utilized as controls to ensure the accuracy of tyrosinase activity assay in living cells. B16F10 cells were cultured in 24-well plates at the density of 5 × 10^4 cells/mL overnight and then treated with different concentrations of test samples for 48 h. After treatments, cells were washed twice with PBS, lysed with PBS containing 1% Triton X-100, and frozen at −80°C for 1 h. The lysates were then clarified by centrifugation for 20 min at 4°C, 12,000 r/min. The protein content in the supernatants was measured using the Pierce BCA protein assay kit. After protein quantification and the adjustment of the protein concentrations, 100 μL of each lysate was mixed with 100 μL of 4 mM L-DOPA in a 96-well plate, and then incubated at 37°C for 1 h, the optical density at 475 nm was measured using a microplate reader. Tyrosinase activity was expressed as a percentage of the control. All experiments were carried out at least three times.

mushroom tyrosinase = mushroom tyrosinase (Agaricus bisporus, UniProt C7FF04); test: Tyrosinase inhibition kinetic analysis (Lineweaver-Burk); type: biochemical; conditions: Lineweaver-Burk plots, L-tyrosine substrate
Description: The enzyme reaction kinetics of these compounds were measured by constructing Lineweaver-Burk plots of inverse velocities (1/[V]), contrary to the inverse of substrate concentration (1/[S]) ([Yoshino and Murakami, 2009]; [Butt et al., 2019]). Preincubations and measurement times were performed using the same protocol as described above. The substrate tyrosine concentration was kept between 0.5 and 8 mM in all kinetic studies, test sample concentrations were set as follows: glabridin (0–0.625 µM), KR (0–5 µM), SG (0–10 µM), IAI (0–2 µM). The values of the kinetic constants were calculated using Lineweaver-Burk plot analysis, and the maximum velocity (Vmax) and Michaelis constant (Km) were also calculated by the Lineweaver-Burk plots with the various concentrations of substrate.

TRP-1 = test: Western blotting of TRP-1 in B16F10 cells; type: cell-based, murine; conditions: 48 h
Description: as §1

B16F10 cells = test: Measurement of melanin content in B16F10 cells; type: cell-based, murine; conditions: 48 h; for increase of intracellular melanin content: vs untreated cells
Description: Measurement of melanin content was carried out according to a previously described method with a slight modification ([Karunarathne et al., 2019]). B16F10 cells were cultured in 6-well plates at the density of 2 × 10^5 cells/mL overnight before being treated with different concentrations of test samples for 48 h. After the treatments, the medium was discarded and the cells were washed twice with PBS and were collected, then 200 μL of RIPA lysis buffer was added to each well, and left standing in an ice bath for 40 min. The lysates were then clarified by centrifugation for 20 min at 4°C, 12,000 r/min. The protein content in the supernatants was measured using the Pierce BCA protein assay kit. Then the harvested cell pellets were photographed and dissolved in 100 μL of 1 M NaOH (containing 10% DMSO) at 100°C for 1 h. Melanin content was determined by measuring absorption at 405 nm. For the accurate calculation of melanin content, absorbance values were normalized to total protein absorbance values.

MITF = test: Western blotting of MITF in B16F10 cells; type: cell-based, murine; conditions: 48 h
Description: as §1

zebrafish larvae [4] = test: Melanogenesis in zebrafish larvae pretreated with PTU; type: in vivo; conditions: 48 h, PTU 200 μM pretreatment
Description: as §2

TYR = test: Western blotting of TYR in B16F10 cells; type: cell-based, murine; conditions: 10 μM, 48 h
Description: as §1, with “[…],” for “TRP-1,”

Sequence of mushroom tyrosinase (C7FF04 1-392): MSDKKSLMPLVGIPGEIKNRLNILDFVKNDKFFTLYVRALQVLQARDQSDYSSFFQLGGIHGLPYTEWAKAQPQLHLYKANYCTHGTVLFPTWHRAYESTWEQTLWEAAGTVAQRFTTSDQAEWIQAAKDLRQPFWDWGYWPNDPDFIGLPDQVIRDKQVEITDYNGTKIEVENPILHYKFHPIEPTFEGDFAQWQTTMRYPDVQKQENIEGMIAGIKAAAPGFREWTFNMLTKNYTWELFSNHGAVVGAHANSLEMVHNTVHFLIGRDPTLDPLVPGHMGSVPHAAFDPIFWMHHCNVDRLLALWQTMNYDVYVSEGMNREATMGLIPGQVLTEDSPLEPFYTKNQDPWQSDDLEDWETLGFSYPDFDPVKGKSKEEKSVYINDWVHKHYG

Question: Which IC50 (tyrosinase) does the source give for `C=C(C)[C@H](CC=C(C)C)Cc1c(O)cc(OC)c(C(=O)/C=C/c2ccc(O)cc2O)c1O` [kuraridin, reference compound] here?
Answer: 0.6 µM

Question: What does the source list for `COc1cc(O)c2c(=O)c(O)c(-c3ccc(O)cc3)oc2c1CC=C(C)C` [IAI, isoanhydroicaritin]?
Answer: viability at 48 h ([1]; 0–5 μM): > 80%; toxicity in zebrafish by the MTC assay (zebrafish embryos; 40, 80, and 160 μM): nontoxic; upregulation of relative expression of DCT protein (DCT; 5 μM): 83.4%; reduction of pigmentation vs control group (zebrafish larvae [2]; 80 μM): 33.0%; reduction of pigmentation vs control group (zebrafish larvae [2]; 160 μM): 34.4%; increase of tyrosinase activity in B16F10 cells ([3]; 5 μM): 25.2%; effect on tyrosinase activity in B16F10 cells (in words) [3]: did not exhibit significant activity; inhibition type on tyrosinase (mushroom tyrosinase): mixed type; upregulation of relative expression of TRP-1 protein (TRP-1; 5 μM): 240.0%; effect on melanin production in B16F10 cells (in words) (B16F10 cells): did not exhibit significant activity; also recorded: did not exert any significant effects

Question: With `OC[C@H]1O[C@@H](Oc2ccc(O)cc2)[C@H](O)[C@@H](O)[C@@H]1O` [arbutin, reference compound] as the compound, how does the “reduction of pigmentation vs control group” value (zebrafish larvae [2]; 100 mM) read?
Answer: 51.4%

Question: With `COc1c2occc2cc2ccc(=O)oc12` [8-MOP, 8-methoxypsoralen, reference compound] as the compound, how does the viability at 48 h ([1]; 0–100 μM) read?
Answer: > 80%

Question: What about the “effect on melanin production vs control group (in words)” value (zebrafish larvae [2]) of the same compound?
Answer: did not affect melanin production

Question: And the “effect on tyrosinase activity in B16F10 cells (in words)” value [3]?
Answer: enhance cellular tyrosinase activity

Question: And the “expression of TRP-1 (in words)” value (TRP-1; positive control)?
Answer: increased

Question: What about the “expression of MITF (in words)” value (MITF; positive control) of the same compound?
Answer: increased

Question: And the “effect on melanin production in B16F10 cells (in words)” value (B16F10 cells)?
Answer: promoted melanin biosynthesis

Question: What about the “increase of melanin production vs model (PTU) group” value (zebrafish larvae [4]; 50 μM) of the same compound?
Answer: 25.0%

Question: With `CC1(C)C=Cc2c(ccc3c2OC[C@@H](c2ccc(O)cc2O)C3)O1` [Glabridin, glabridin, reference compound] as the compound, how does the viability at 48 h ([1]; 0–2 μM) read?
Answer: > 80%

Question: And the “effect on tyrosinase activity in B16F10 cells (in words)” value [3]?
Answer: inhibited tyrosinase activity

Question: What about the “effect on melanin production in B16F10 cells (in words)” value (B16F10 cells) of the same compound?
Answer: strong anti-melanogenic effect

Question: Which results are given for `C=C(C)[C@H](CC=C(C)C)Cc1c(O)cc(O)c2c1O[C@H](c1ccc(O)cc1O)CC2=O` [SG, sophoraflavanone G]?
Answer: viability at 48 h ([1]; 0–10 μM): > 80%; IC50 (tyrosinase): 6.6 µM; toxicity in zebrafish by the MTC assay (zebrafish embryos; 10 μM): nontoxic; upregulation of relative expression of DCT protein (DCT; 10 μM): 70.0%; increase of tyrosinase activity in B16F10 cells ([3]; 10 μM): 45.7%; effect on tyrosinase activity in B16F10 cells (in words) [3]: did not exhibit significant activity; inhibition type on tyrosinase (mushroom tyrosinase): mixed type; upregulation of relative expression of TRP-1 protein (TRP-1; 10 μM): 229.3%; effect on melanin production in B16F10 cells (in words) (B16F10 cells): did not exhibit significant activity; also recorded: did not exert any significant effects; effect on melanin production vs model (PTU) group (in words) (zebrafish larvae [4]; 10 μM): no effect; increase of expression of TYR (TYR): 78.4%

Question: What does the source list for `C=C(C)[C@H](CC=C(C)C)Cc1c(O)cc(OC)c2c1O[C@H](c1ccc(O)cc1O)CC2=O` [KR, kurarinone]?
Answer: viability at 48 h ([1]; 0–20 μM): > 80%; IC50 (tyrosinase): 6.2 µM; toxicity in zebrafish by the MTC assay (zebrafish embryos; 5, 10, and 20 μM): nontoxic; upregulation of relative expression of DCT protein (DCT; 10 μM): 127.8%; effect on melanin production vs control group (in words) (zebrafish larvae [2]): did not affect melanin production; increase of tyrosinase activity in B16F10 cells ([3]; 2.5 μM): 25.1%; increase of tyrosinase activity in B16F10 cells ([3]; 5 μM): 42.1%; increase of tyrosinase activity in B16F10 cells ([3]; 10 μM): 77.2%; effect on tyrosinase activity in B16F10 cells (in words) [3]: enhanced intracellular tyrosinase activity; inhibition type on tyrosinase (mushroom tyrosinase): mixed type; upregulation of relative expression of TRP-1 protein (TRP-1; 10 μM): 79.2%; upregulation of relative expression of MITF protein (MITF; 10 μM): 84.0%; increase of intracellular melanin content (B16F10 cells; 5 μM): 61.6%; increase of intracellular melanin content (B16F10 cells; 10 μM): 85.5%; effect on melanin production in B16F10 cells (in words) (B16F10 cells): stimulated melanin production; increase of melanin production vs model (PTU) group (zebrafish larvae [4]; 20 μM): 36.9%
